Experimental data reported in paper PMC9739180, “Discovery of a Flavonoid FM04 as a Potent Inhibitor to Reverse P-Glycoprotein-Mediated Drug Resistance in Xenografts and Improve Oral Bioavailability of Paclitaxel” (International Journal of Molecular Sciences, 2022).
Read-outs that look alike come from different tables or passages of the source.

What was measured:
P-gp = P-gp (Homo sapiens, UniProt P08183); assay: P-gp-ATPase activity (P-gp-Glo assay); type: biochemical; parameters: purchased Promega
P-gp, sequence (P08183 whole entry): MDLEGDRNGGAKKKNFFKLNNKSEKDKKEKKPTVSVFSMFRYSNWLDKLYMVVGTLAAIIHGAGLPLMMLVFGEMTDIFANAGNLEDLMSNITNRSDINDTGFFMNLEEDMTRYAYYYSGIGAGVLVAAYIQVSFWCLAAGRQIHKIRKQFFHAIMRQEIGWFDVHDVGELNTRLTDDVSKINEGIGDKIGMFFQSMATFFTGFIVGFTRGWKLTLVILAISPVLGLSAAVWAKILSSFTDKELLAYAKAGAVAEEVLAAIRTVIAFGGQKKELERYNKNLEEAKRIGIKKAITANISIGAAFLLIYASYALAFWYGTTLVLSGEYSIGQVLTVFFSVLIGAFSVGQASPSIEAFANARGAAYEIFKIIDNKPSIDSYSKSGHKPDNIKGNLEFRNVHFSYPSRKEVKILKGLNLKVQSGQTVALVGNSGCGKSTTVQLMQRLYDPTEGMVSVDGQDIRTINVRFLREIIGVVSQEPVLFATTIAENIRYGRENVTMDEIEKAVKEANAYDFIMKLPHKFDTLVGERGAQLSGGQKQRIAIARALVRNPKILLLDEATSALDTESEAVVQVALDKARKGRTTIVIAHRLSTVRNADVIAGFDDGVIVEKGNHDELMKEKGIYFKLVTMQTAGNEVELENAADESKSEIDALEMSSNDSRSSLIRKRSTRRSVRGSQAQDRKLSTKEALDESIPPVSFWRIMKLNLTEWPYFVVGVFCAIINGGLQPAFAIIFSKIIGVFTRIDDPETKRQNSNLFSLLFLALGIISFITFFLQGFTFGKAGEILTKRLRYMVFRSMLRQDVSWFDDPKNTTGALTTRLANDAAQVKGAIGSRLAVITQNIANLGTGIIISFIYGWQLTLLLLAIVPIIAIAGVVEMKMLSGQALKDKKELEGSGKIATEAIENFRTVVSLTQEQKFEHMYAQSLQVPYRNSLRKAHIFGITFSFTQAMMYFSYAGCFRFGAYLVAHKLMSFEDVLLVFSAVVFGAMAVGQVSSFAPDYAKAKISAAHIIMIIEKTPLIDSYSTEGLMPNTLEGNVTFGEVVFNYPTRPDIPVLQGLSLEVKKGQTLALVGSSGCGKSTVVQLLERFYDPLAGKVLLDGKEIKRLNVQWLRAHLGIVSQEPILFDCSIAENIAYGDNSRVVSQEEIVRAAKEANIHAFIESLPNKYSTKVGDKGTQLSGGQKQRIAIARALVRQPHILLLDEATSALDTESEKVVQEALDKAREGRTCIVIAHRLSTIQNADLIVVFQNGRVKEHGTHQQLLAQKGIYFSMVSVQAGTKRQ
Experimental: N = 2–3 independent experiments. […] After incubation, the cells were lysed and spun down. […] N = 2–6 independent experiments. […] A 1% DMSO was a solvent control. […] N = 2–3 independent experiments.
P-gp-ATPase activity was measured by a P-gp-Glo assay system (Promega) with a human P-gp membrane, as reported previously. […] The reaction was initiated by the addition of MgATP and incubated at 37 °C for 1 h. After adding the ATP detection reagent, the sample was incubated at room temperature for 20 min before measuring the remaining ATP signal of luminescence by a Clariostar microplate reader (BMG Labtech). Vanadate-inhibitable P-gp ATPase activity was determined by calculating the luminescence signal in the samples with or without sodium vanadate.

[1] = Cytotoxicity assay (MTS, 3 days), L929; type: cell-based; conditions: L929 fibroblast cells; mouse fibroblast cell line
Experimental: (§1) To each well of 96-well plate, 10,000 cells of LCC6, LCC6MDR or L929 were incubated with different concentrations of FM04 (0, 0.4, 1.2, 3.7, 11, 33 and 100 μM). The final volume in each well of 96-well plate was 100 μL and the plate was incubated for 3 days at 37 °C. The cell viability was determined using MTS assay as reported previously.

[2] = Cytotoxicity assay (MTS, 3 days), LCC6MDR; type: cell-based, human; conditions: human, LCC6MDR cells
Experimental: as §1

LCC6MDR = assay: Cytotoxicity assay (MTS, 3 days), LCC6MDR; type: cell-based, human; conditions: at 61 nM to 153 nM
Experimental: as §1

MRP1 = biological target: T1, MRP1 (Homo sapiens, UniProt P33527); assay: MRP1-modulating activity in 2008/MRP1 cells (MTS); type: cell-based
T1 construct: expressed in transfected cells; host or cells: 2008/MRP1 (human ovarian cancer)
T1 sequence (P33527 whole entry): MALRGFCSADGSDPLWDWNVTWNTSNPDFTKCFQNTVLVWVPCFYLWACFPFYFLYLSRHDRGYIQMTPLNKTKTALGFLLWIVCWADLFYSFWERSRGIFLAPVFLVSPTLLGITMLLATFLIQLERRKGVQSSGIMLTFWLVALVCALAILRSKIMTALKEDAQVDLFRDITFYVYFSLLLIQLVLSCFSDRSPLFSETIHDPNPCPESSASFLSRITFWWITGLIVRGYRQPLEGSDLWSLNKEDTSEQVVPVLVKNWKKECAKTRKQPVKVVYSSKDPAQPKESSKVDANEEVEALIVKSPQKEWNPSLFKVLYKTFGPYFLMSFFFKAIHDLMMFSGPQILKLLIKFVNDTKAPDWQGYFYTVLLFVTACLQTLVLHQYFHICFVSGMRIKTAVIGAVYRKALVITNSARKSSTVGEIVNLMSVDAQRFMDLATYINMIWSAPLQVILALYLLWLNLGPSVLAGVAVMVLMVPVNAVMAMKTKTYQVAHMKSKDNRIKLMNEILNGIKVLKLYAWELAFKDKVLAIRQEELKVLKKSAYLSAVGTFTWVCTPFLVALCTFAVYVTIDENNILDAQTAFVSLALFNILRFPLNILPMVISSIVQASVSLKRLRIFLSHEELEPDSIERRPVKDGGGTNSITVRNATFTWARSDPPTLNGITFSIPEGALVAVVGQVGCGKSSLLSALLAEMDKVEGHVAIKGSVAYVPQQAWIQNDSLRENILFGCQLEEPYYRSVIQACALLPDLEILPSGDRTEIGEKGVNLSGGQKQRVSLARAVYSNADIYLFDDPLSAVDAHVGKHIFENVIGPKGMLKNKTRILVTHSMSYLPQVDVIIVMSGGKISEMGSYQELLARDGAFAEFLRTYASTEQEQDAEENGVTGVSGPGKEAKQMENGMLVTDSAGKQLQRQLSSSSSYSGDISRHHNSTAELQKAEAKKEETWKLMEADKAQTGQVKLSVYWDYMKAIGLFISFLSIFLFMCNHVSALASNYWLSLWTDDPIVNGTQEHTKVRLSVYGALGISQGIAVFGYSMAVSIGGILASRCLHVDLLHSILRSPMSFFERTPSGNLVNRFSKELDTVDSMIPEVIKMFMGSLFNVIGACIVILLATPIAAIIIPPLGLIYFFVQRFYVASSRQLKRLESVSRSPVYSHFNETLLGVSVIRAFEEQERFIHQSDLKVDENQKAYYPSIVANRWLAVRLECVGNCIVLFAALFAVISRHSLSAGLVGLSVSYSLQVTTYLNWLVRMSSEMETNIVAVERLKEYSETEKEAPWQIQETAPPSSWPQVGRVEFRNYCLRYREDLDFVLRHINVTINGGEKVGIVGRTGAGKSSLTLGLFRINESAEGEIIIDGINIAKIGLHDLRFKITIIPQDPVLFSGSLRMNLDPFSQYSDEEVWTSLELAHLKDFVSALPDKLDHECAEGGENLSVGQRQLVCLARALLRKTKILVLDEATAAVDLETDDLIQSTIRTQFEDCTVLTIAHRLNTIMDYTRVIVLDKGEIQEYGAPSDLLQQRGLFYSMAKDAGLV
Experimental: The final volume in each well of the 96-well plate was 200 μL. The plate was then incubated for 5 days at 37 °C. The cell viability was determined using an MTS assay as reported previously.

[3] = In vivo monitoring of FD18 and its metabolites in plasma after I.V. FD18; parameters: species or system SD rats; conditions: after FD18 5 mg/kg I.V.
Experimental: Figure 3 Proposed metabolism pathway of FD18 and its metabolites formed in vivo. (A) metabolism study of FD18 was conducted on human liver microsomes (HLM) and rat liver microsomes (RLM) in vitro. Chemical structure of the 3 metabolites was predicted by LC/QTOF-MS/MS and confirmed by the synthetic compounds (Figure 2E–J). The pathways for biotransformation of FD18 into FM04 was proposed. (B) plasma concentration profile of FD18 and the in vivo formation of metabolites M1, M2 and M3. After I.V. injection of FD18 (5 mg/kg) into […], plasma was collected at 10, 30, 60, 120, 240, 420 and 600 min, respectively. The concentration of FD18 at each time point was determined by UPLC-MS/MS. Its plasma concentration was further quantified with peak area ratio of FD18 against D7-18. […] In vivo formation of metabolites M1, M2 and M3 were monitored and quantified by UPLC-MS/MS with corresponding calibration curve of 14a, FM04 and FM327. Pharmacokinetic parameter AUC was calculated by the pharmacokinetic software-Summit® PK solutions 2.0 (Summit Research Service, Ashland, Wilmington, DE, USA).
FD18 stock solution was freshly prepared in 33% Cremophor EL, 33% ethanol and 33% saline at a concentration of 9.5 mg/mL. FD18 stock solution was then diluted with saline to form a 4 mg/mL working solution for animal injection. SD rats were intravenously (I.V.) administered with FD18 at 5 mg/kg (n = 3). Blood samples (approx. 300 μL) were taken via jugular vein at 10, 30, 60, 120, 240 and 420 min post-administration. Blood samples were centrifuged at 16,100× g for 10 min to obtain plasma. Plasma samples (50 µL) were spiked with 15 μL of internal standard (IS) (D7-NBn, 10 μg/mL). Two hundred microliter of methanol was added for protein precipitation. Samples were centrifuged at 16,100× g for 10 min prior to filtering by 0.22 μm syringe filter for UPLC-MSMS analysis.
The UPLC-MS/MS system consists of an Agilent 1260 infinity UPLC interfaced with a triple quadrupole mass spectrometer (Agilent 6460) equipped with an electrospray ionization source in positive mode. Zorbax Eclipse XDB-C8 (4.6 × 150 mm, 5 µM) was used for separation. The mobile phase for chromatographic separation consisted of methanol + 0.1% formic acid (solvent B) and Milli-Q water + 0.1% formic acid (solvent A) with gradient elution of 30% solvent B to 100% solvent B in 5 min. The elution condition was allowed for equilibrium from the 7th min onward. The analysis time for each injection was 13 min. The flow rate was 0.4 mL/min. The synthetic compound D7-NBn, the deuterated benzyl form of FD18, was used as the internal standard (IS) for the quantification of the three metabolites. Multiple reaction monitoring (MRM) was set to monitor the transitions of D7-NBn [M+H]^+, FD18 [M+H]^+, M1 [M+H]^+, M2 [M+H]^+ and M3 [M+H]^+ at 731.01 > 98.1 m/z, 724.01 > 91.1 m/z, 634.01 > 114 m/z, 416.01 > 91.1 m/z and 327.01 > 239 m/z, respectively. The coefficient of determination (R^2) for 14a, FM04 and FM327 were above 0.99. The dynamic range for the metabolites in the current setting is 78 ng/mL to 2.44 ng/mL.

[4] = parameters: method as in PMID 23090875; conditions: oral PTX 10 mg/kg, cited from earlier work

| P-gp ATPase activity, fold of basal (P-gp; 3 μM) [fold] | P-gp ATPase activity, fold of basal (P-gp; 100 μM) [fold] | reversal of MRP1-mediated DOX resistance (MRP1; 1 μM, 2008/MRP1) | RF, DOX in 2008/MRP1 (MRP1; IC50 without modulator / IC50 with 1 µM modulator) | AUC(0-t) ([3]; Sprague-Dawley, rat, iv) [ng·h/mL] | Cmax ([3]; Sprague-Dawley, rat, iv) [ng/mL] | Tmax ([3]; Sprague-Dawley, rat, iv) [h] | Normalized AUC (systemic exposure relative to FD18) ([3]; listed as M2) [%] | SMILES | IC50 at 3 days [1] [µM] | IC50 at 3 days [2] [µM] | cytotoxicity of FM04 alone towards LCC6MDR cells (LCC6MDR) | fold increase of oral plasma AUC of PTX relative to wild type mice ([4]; Cyp3a KO (Cyp3a−/−) mice) [fold] | fold increase of oral plasma AUC of PTX relative to wild type mice ([4]; P-gp KO (Mdr1a/b−/−) mice) [fold] | fold increase of oral plasma AUC of PTX relative to wild type mice ([4]; combined P-gp and Cyp3a KO mice) [fold] |
| --- | --- | --- | --- | --- | --- | --- | --- | --- | --- | --- | --- | --- | --- | --- |
| 1.5 | 3.3 | did not reverse | 1.2 | 44.5 | 11 | 1 | 7 | O=c1cc(-c2ccc(OCCOCCNCc3ccccc3)cc2)oc2ccccc12 [FM04, 2-(4-(2-(2-(benzylamino)ethoxy)ethoxy)phenyl)-4H-chromen-4-one] | 33 | 5.7 ± 1.5 | did not exhibit cytotoxicity |  |  |  |
|  |  |  |  |  |  |  |  | CC(=O)O[C@H]1C(=O)[C@@]2(C)[C@H]([C@H](OC(=O)c3ccccc3)[C@]3(O)C[C@H](OC(=O)[C@H](O)[C@@H](NC(=O)c4ccccc4)c4ccccc4)C(C)=C1C3(C)C)[C@]1(OC(C)=O)CO[C@@H]1C[C@@H]2O [PTX, paclitaxel] |  |  |  | 1.5 | 12.4 | 27.6 |
